Reference: patent US20220380329A1, “A HYPERBRANCHED POLYGLYCEROL POLYGLYCIDYL ETHER AND ITS USE AS CROSSLINKER FOR POLYSACCHARIDES” (BIOPOLIMERI S.R.L., priority 2019, published 2022)

Test system: 3T3 mouse fibroblasts
Assay: MTT viability assay, cells grown in direct contact with the crosslinker
Type: cell-based
Settings: direct contact with cross-linker solutions of same epoxy equivalents, without polysaccharide; control culture medium in NaCl 0.9%
Experimental: MTT assay was used to evaluate the viability of 3T3 mouse fibroblasts grown.
c) MTT assay on cells grown in direct contact with the crosslinker
The MTT assay was performed on cells grown in direct contact with a solution containing cross-linker solutions. The solution contains the same epoxy equivalents, following the same steps of the manufacturing process of hydrogels—such as chemical reaction, washing and sterilization, but without the addition of the polysaccharide.

Compound: C(CCOCC1CO1)COCC1CO1 (stereo not shown) [BDDE, 1,4-butane diol diglycidyl ether]
- cell viability (MTT): significant decrease of cells viability and signs of suffering
